Measured values as given in US20050004167A1, “Branched chain amino acid-dependent aminotransferase inhibitors and their use in the treatment of neurodegenerative diseases” (WARNER-LAMBERT COMPANY LLC, priority 2001, published 2005).
Where “and” joins values, the source holds several entries; their conditions need not be identical. Equal values may be shown once.

Legend:
rat BCAT cytosolic form = target: T1, rat BCAT cytosolic form (Rattus norvegicus, UniProt P54690); assay: In vitro coupled enzyme assay (glutamate dehydrogenase, NADH formation), rat BCATc; type: biochemical; conditions: recombinant rat BCATc, 37° C., 25 mM phosphate buffer pH 7.8; several values in a cell = repeat determinations; read-out: RrBCATc
T1 construct: made in house; host or cells: E. coli BL21(DE3)
T1 sequence (P54690 1-411): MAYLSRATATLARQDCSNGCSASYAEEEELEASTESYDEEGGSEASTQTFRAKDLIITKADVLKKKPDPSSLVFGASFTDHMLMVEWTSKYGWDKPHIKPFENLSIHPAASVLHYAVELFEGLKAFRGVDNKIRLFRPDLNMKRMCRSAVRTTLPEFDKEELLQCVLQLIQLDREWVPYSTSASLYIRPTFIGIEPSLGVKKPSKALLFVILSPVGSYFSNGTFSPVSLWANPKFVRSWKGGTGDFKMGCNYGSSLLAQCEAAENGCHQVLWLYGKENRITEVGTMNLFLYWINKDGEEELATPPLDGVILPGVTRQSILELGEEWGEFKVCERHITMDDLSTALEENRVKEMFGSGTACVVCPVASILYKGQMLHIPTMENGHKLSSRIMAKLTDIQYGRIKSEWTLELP
Method in brief: (§1)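 At 37 °C in 25 mM phosphate pH 7.8 with 2 mM DTT, 1.25 μg His-tag-purified E. coli-expressed BCAT transaminated 750 μM L-leucine with 500 μM α-ketoglutarate and 10 μM PLP. Glutamate was coupled via glutamate dehydrogenase (1 mM NAD+, 4 mM ADP) to NADH formation at 340 nm. Compounds were added in DMSO up to 5% v/v.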

[1] = target: T2, human Branched Chain Amino Acid Aminotransferase cytosolic form (hBCATc) (Homo sapiens, UniProt P54687); assay: In vitro coupled enzyme assay (glutamate dehydrogenase, NADH formation), human BCATc; type: biochemical; conditions: recombinant human BCATc, 37° C., 25 mM phosphate buffer pH 7.8; several values in a cell = repeat determinations; read-out: RhBCATc
T2 construct: made in house; host or cells: E. coli BL21(DE3)
T2 sequence (P54687 1-386): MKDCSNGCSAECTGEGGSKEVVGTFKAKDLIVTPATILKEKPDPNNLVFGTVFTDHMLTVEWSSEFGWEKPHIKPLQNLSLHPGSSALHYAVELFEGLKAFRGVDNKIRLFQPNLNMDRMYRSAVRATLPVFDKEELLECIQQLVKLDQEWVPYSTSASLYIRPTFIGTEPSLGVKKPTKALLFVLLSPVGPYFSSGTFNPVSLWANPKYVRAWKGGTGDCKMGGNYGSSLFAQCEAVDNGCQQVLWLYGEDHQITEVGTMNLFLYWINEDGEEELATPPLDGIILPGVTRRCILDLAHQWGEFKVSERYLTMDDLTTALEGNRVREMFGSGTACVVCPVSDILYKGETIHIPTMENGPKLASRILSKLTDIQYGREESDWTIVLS
Method in brief: as §1

Structure (SMILES)	IC50 (rat BCAT cytosolic form)	IC50 [1]	melting point [°C]
N#Cc1cccc(S(=O)(=O)NNC(=O)c2cc3cc(Cl)ccc3o2)c1 [Example 27, 2-Benzofurancarboxylic acid, 5-chloro-, 2-[(3-cyanophenyl)sulfonyl]hydrazide]	45.2 µM	171 µM	208.5 to 210
O=C(NNS(=O)(=O)c1cc(Cl)cc(Cl)c1)c1cc2cc(Cl)ccc2o1 [Example 31, 2-Benzofurancarboxylic acid, 5-chloro-, 2-[(3,5-dichlorophenyl)sulfonyl]-hydrazide]	0.81 µM	2.6 µM and 4.3 µM	242.5 to 243.3
O=C(NNS(=O)(=O)c1cccc(F)c1)c1ccc2oc3ccccc3c2c1 [Example 35, 2-Dibenzofurancarboxylic acid 2-[(3-fluorophenyl)sulfonyl]hydrazide]	0.31 µM	3.57 µM	222.6 to 223.3
Cc1ccc(F)cc1S(=O)(=O)NNC(=O)c1ccc2oc3ccccc3c2c1 [Example 36, 2-Dibenzofurancarboxylic acid 2-[(5-fluoro-2-methylphenyl)sulfonyl]hydrazide]	1.1 µM	17.5 µM and 18.2 µM	210.1 to 210.5
O=C(NNS(=O)(=O)c1ccc(F)c(Cl)c1)c1ccc2oc3ccccc3c2c1 [Example 38, 2-Dibenzofurancarboxylic acid 2-[(3-chloro-4-fluorophenyl)sulfonyl]hydrazide]	0.77 µM and 0.61 µM	29.9 µM	210.8 to 211.6
O=C(NNS(=O)(=O)c1ccc(F)c(F)c1)c1cc2cc(Cl)ccc2o1 [Example 41, 2-Benzofurancarboxylic acid, 5-chloro-2-[(3,4-difluorophenyl)sulfonyl]hydrazide]	14.5 µM	28.8 µM	193.8 to 195
O=C(NNS(=O)(=O)c1cccc(Cl)c1)c1cc2cc(Cl)ccc2o1 [Example 43, 2-Benzofurancarboxylic acid, 5-chloro-2-[(3-chlorophenyl)sulfonyl]hydrazide]	0.47 µM	1.8 µM	202.9 to 205.2
COc1cccc(S(=O)(=O)NNC(=O)c2cc3cc(Cl)ccc3o2)c1 [Example 48, 2-Benzofurancarboxylic acid, 5-chloro-2-[(3-methoxyphenyl)sulfonyl]hydrazide]	0.91 µM	4.21 µM and 7.6 µM	204.3 to 204.6
Cc1c(Cl)cccc1S(=O)(=O)NNC(=O)c1cc2cc(Cl)ccc2o1 [Example 49, 2-Benzofurancarboxylic acid, 5-chloro-2-[(3-chloro-2-methylphenyl)sulfonyl]-hydrazide]	3.1 µM and 4 µM	1.75 µM and 3.6 µM	198.2 to 198.5
Cc1ccc(F)cc1S(=O)(=O)NNC(=O)c1cc2cc(Cl)ccc2o1 [Example 50, 2-Benzofurancarboxylic acid, 5-chloro-2-[(5-fluoro-2-methylphenyl)sulfonyl]-hydrazide]	1.3 µM	5.18 µM and 9.1 µM	209.6 to 211.2
O=C(NNS(=O)(=O)c1ccccc1OC(F)(F)F)c1cc2cc(Cl)ccc2o1 [Example 52, 2-Benzofurancarboxylic acid, 5-chloro-2-[[2-(trifluoromethoxy)phenyl]sulfonyl]-hydrazide]	0.3 µM	2.19 µM	218.2 to 219.8
O=C(NNS(=O)(=O)c1ccccc1C(F)(F)F)c1cc2cc(Cl)cc(Cl)c2o1 [Example 70]	0.43 µM	11.6 µM	245.6 to 247.6

The next lines start with the values.

IC50 (rat BCAT cytosolic form)	IC50 [1]	melting point [°C]	Structure (SMILES)
15.2 µM and 6.9 µM	138 µM	234 to 236	N#Cc1cccc(S(=O)(=O)NNC(=O)c2ccc3oc4ccccc4c3c2)c1 [Example 26, 2-Dibenzofurancarboxylic acid 2-[(3-cyanophenyl)sulfonyl]hydrazide]
5.7 µM	25 µM	204.6 to 206.2	O=C(NNS(=O)(=O)c1ccc(F)cc1Cl)c1cc2cc(Cl)ccc2o1 [Example 30, 2-Benzofurancarboxylic acid, 5-chloro-, 2-[(2-chloro-4-fluorophenyl)sulfonyl]-hydrazide]
> 100 µM	> 100 µM	244.7 to 245.5	O=C(NNS(=O)(=O)c1cc(C(F)(F)F)cc(C(F)(F)F)c1)c1ccc2oc3ccccc3c2c1 [Example 32, 2-Dibenzofurancarboxylic acid, 2-[[3,5-bis(trifluoromethyl)phenyl]sulfonyl]-hydrazide]
3.5 µM	41.3 µM	210.1 to 210.5	O=C(NNS(=O)(=O)c1ccc(F)c(F)c1)c1ccc2oc3ccccc3c2c1 [Example 37, 2-Dibenzofurancarboxylic acid 2-[(3,4-difluorophenyl)sulfonyl]hydrazide]
0.21 µM	2.29 µM	199.5 to 200.5	COc1cccc(S(=O)(=O)NNC(=O)c2ccc3oc4ccccc4c3c2)c1 [Example 39, 2-Dibenzofurancarboxylic acid 2-[(3-methoxyphenyl)sulfonyl]hydrazide]
1 µM	4.86 µM and 8.8 µM	174.4 to 174.7	O=C(NNS(=O)(=O)c1cccc(F)c1)c1cc2cc(Cl)ccc2o1 [Example 40, 2-Benzofurancarboxylic acid, 5-chloro-2-[(3-fluorophenyl)sulfonyl]hydrazide]
1.3 µM	5.3 µM and 10.4 µM	200.3 to 200.5	O=C(NNS(=O)(=O)c1ccccc1Cl)c1cc2cc(Cl)ccc2o1 [Example 42, 2-Benzofurancarboxylic acid, 5-chloro-2-[(2-chlorophenyl)sulfonyl]hydrazide]
0.21 µM	2.29 µM	218.1 to 220	O=C(NNS(=O)(=O)c1cccc(Br)c1)c1cc2cc(Cl)ccc2o1 [Example 45, 2-Benzofurancarboxylic acid, 5-chloro-2-[(3-bromophenyl)sulfonyl]hydrazide]
0.15 µM and 0.2 µM	0.84 µM and 1.47 µM	201.2 to 201.6	Cc1cccc(S(=O)(=O)NNC(=O)c2cc3cc(Cl)ccc3o2)c1 [Example 47, 2-Benzofurancarboxylic acid, 5-chloro-2-[(3-methylphenyl)sulfonyl]hydrazide]
0.22 µM	3.57 µM	172.2 to 173.8	COc1ccc2oc(C(=O)NNS(=O)(=O)c3ccccc3)c(OC)c2c1 [Example 58, 2-Benzofurancarboxylic acid, 3,5-dimethoxy-, 2-(phenylsulfonyl)hydrazide]
0.12 µM	3.42 µM	174.8 to 175.2	COc1ccc2c(OC)c(C(=O)NNS(=O)(=O)c3ccccc3)oc2c1 [Example 59, 2-Benzofurancarboxylic acid, 3,6-dimethoxy-, 2-(phenylsulfonyl)hydrazide]
0.15 µM	1.38 µM	184.3 to 184.6	CCOc1c(C(=O)NNS(=O)(=O)c2ccccc2)oc2ccc(-c3ccccc3)cc12 [Example 66, 2-Benzofurancarboxylic acid, 3-ethoxy-5-phenyl-, 2-(phenylsulfonyl)hydrazide]
0.05 µM	3.86 µM	216.4 to 218.1	O=C(NNS(=O)(=O)c1ccccc1)c1cc2cc(Cl)cc(Cl)c2o1 [Example 69, 2-Benzofurancarboxylic acid, 5,7-dichloro 2-(phenylsulfonyl)sulfonyl hydrazide]
